Reference: US9326506B2, “Preparation method, agricultural composition and applications of natural brassinolide analogs” (CHENGDU NEWSUN CROPSCIENCE CO., LTD, priority 2012, dated 2016)

Test system: rice
Test: Low temperature assay on rice seedlings
Assay type: in vivo
Method: According to a low temperature assay, we measured parameters including plant height, number of leaf, area of leaf, number of tiller, weight of root at low temperature to completely determine effects of the natural brassinolide analogues on the resistance to low temperature of a plant.
The natural brassinolide analogues, BR1, BR2, BR3, BR4, BR5 and BR6, used herein, were those prepared by the method of Example 1. Respectively the analogues were dissolved into 95% (V/V) ethanol solution, and then diluted with pure water to 1 mg/L, 0.1 mg/L, 0.01 mg/L, 0.001 mg/L and 0.0001 mg/L. In addition, pure water was used as a control.
After rice seeds were disinfected by using 5% sodium hypochlorite solution treatment, they were rinsed with distilled water until their pH>7, placed into a petri dish in a dark incubator, and cultured by using water at 30° C.±2° C. for 9 days. Then respectively the nine-day-old etiolated seedlings of rice were immersed in the above solutions containing different concentrations of the natural brassinolide analogues or pure water, and cultured at the temperature of 1° C., 2° C., 3° C., 4° C. and 5° C. for 24 hr. The parameters including plant height, area of leaf and weight of root after 3, 6, 9 and 12 days and number of leaf and number of tiller after 12 days were measured.

SMILES: CC(C)[C@H](C)[C@@H](O)[C@H](O)[C@@H](C)[C@H]1CCC2C3CC(=O)C4C[C@H](O)CC[C@]4(C)C3CC[C@@]21C (stereo partly drawn) [BR4]
- Area of leaf (0.0001 mg/l, 1 °C, 3 days): 9.8 cm^2
- Height (0.0001 mg/l, 1 °C, 3 days): 6.8 cm
- Weight of root (0.0001 mg/l, 1 °C, 3 days): 2.8 g
- Area of leaf (0.0001 mg/l, 1 °C, 6 days): 11 cm^2
- Height (0.0001 mg/l, 1 °C, 6 days): 6.9 cm
- Weight of root (0.0001 mg/l, 1 °C, 6 days): 3 g
- Area of leaf (0.0001 mg/l, 1 °C, 9 days): 12.2 cm^2
- Height (0.0001 mg/l, 1 °C, 9 days): 7 cm
- Weight of root (0.0001 mg/l, 1 °C, 9 days): 3.1 g
- Area of leaf (0.0001 mg/l, 1 °C, 12 days): 13 cm^2
- Height (0.0001 mg/l, 1 °C, 12 days): 7.2 cm
- Number of leaf (0.0001 mg/l, 1 °C, 12 days): 3
- Number of tiller (0.0001 mg/l, 1 °C, 12 days): 3
- Weight of root (0.0001 mg/l, 1 °C, 12 days): 3.5 g
- Area of leaf (0.0001 mg/l, 2 °C, 3 days): 10 cm^2
- Height (0.0001 mg/l, 2 °C, 3 days): 6.8 cm
- Weight of root (0.0001 mg/l, 2 °C, 3 days): 2.8 g
- Area of leaf (0.0001 mg/l, 2 °C, 6 days): 11.7 cm^2
- Height (0.0001 mg/l, 2 °C, 6 days): 7 cm
- Weight of root (0.0001 mg/l, 2 °C, 6 days): 3.0 g
- Area of leaf (0.0001 mg/l, 2 °C, 9 days): 12 cm^2
- Height (0.0001 mg/l, 2 °C, 9 days): 7.1 cm
- Weight of root (0.0001 mg/l, 2 °C, 9 days): 3.2 g
- Area of leaf (0.0001 mg/l, 2 °C, 12 days): 13 cm^2
- Height (0.0001 mg/l, 2 °C, 12 days): 7.2 cm
- Number of leaf (0.0001 mg/l, 2 °C, 12 days): 3
- Number of tiller (0.0001 mg/l, 2 °C, 12 days): 3
- Weight of root (0.0001 mg/l, 2 °C, 12 days): 3.7 g
- Area of leaf (0.0001 mg/l, 3 °C, 3 days): 10 cm^2
- Height (0.0001 mg/l, 3 °C, 3 days): 6.9 cm
- Weight of root (0.0001 mg/l, 3 °C, 3 days): 2.5 g
- Area of leaf (0.0001 mg/l, 3 °C, 6 days): 11.8 cm^2
- Height (0.0001 mg/l, 3 °C, 6 days): 7.1 cm
- Weight of root (0.0001 mg/l, 3 °C, 6 days): 2.6 g
- Area of leaf (0.0001 mg/l, 3 °C, 9 days): 12.1 cm^2
- Height (0.0001 mg/l, 3 °C, 9 days): 7.4 cm
- Weight of root (0.0001 mg/l, 3 °C, 9 days): 2.9 g
- Area of leaf (0.0001 mg/l, 3 °C, 12 days): 13 cm^2
- Height (0.0001 mg/l, 3 °C, 12 days): 7.4 cm
- Number of leaf (0.0001 mg/l, 3 °C, 12 days): 3
- Number of tiller (0.0001 mg/l, 3 °C, 12 days): 2
- Weight of root (0.0001 mg/l, 3 °C, 12 days): 2.9 g
- Area of leaf (0.0001 mg/l, 4 °C, 3 days): 10 cm^2
- Height (0.0001 mg/l, 4 °C, 3 days): 6.9 cm
- Weight of root (0.0001 mg/l, 4 °C, 3 days): 2.5 g
- Area of leaf (0.0001 mg/l, 4 °C, 6 days): 11.5 cm^2
- Height (0.0001 mg/l, 4 °C, 6 days): 7.1 cm
- Weight of root (0.0001 mg/l, 4 °C, 6 days): 2.6 g
- Area of leaf (0.0001 mg/l, 4 °C, 9 days): 13 cm^2
- Height (0.0001 mg/l, 4 °C, 9 days): 7.5 cm
- Weight of root (0.0001 mg/l, 4 °C, 9 days): 2.9 g
- Area of leaf (0.0001 mg/l, 4 °C, 12 days): 13.4 cm^2
- Height (0.0001 mg/l, 4 °C, 12 days): 7.5 cm
- Number of leaf (0.0001 mg/l, 4 °C, 12 days): 3
- Number of tiller (0.0001 mg/l, 4 °C, 12 days): 2
- Weight of root (0.0001 mg/l, 4 °C, 12 days): 2.9 g
- Area of leaf (0.0001 mg/l, 5 °C, 3 days): 10.2 cm^2
- Height (0.0001 mg/l, 5 °C, 3 days): 7.0 cm
- Weight of root (0.0001 mg/l, 5 °C, 3 days): 2.5 g
- Area of leaf (0.0001 mg/l, 5 °C, 6 days): 12 cm^2
- Height (0.0001 mg/l, 5 °C, 6 days): 7.3 cm
- Weight of root (0.0001 mg/l, 5 °C, 6 days): 2.5 g
- Area of leaf (0.0001 mg/l, 5 °C, 9 days): 13 cm^2
- Height (0.0001 mg/l, 5 °C, 9 days): 7.5 cm
- Weight of root (0.0001 mg/l, 5 °C, 9 days): 2.9 g
- Area of leaf (0.0001 mg/l, 5 °C, 12 days): 13.4 cm^2
- Height (0.0001 mg/l, 5 °C, 12 days): 7.6 cm
- Number of leaf (0.0001 mg/l, 5 °C, 12 days): 3
- Number of tiller (0.0001 mg/l, 5 °C, 12 days): 2
- Weight of root (0.0001 mg/l, 5 °C, 12 days): 2.9 g
- Area of leaf (0.001 mg/l, 1 °C, 3 days): 10 cm^2
- Height (0.001 mg/l, 1 °C, 3 days): 6.9 cm
- Weight of root (0.001 mg/l, 1 °C, 3 days): 2.8 g
- Area of leaf (0.001 mg/l, 1 °C, 6 days): 11.3 cm^2
- Height (0.001 mg/l, 1 °C, 6 days): 7 cm
- Weight of root (0.001 mg/l, 1 °C, 6 days): 3.1 g
- Area of leaf (0.001 mg/l, 1 °C, 9 days): 12.6 cm^2
- Height (0.001 mg/l, 1 °C, 9 days): 7.1 cm
- Weight of root (0.001 mg/l, 1 °C, 9 days): 3.2 g
- Area of leaf (0.001 mg/l, 1 °C, 12 days): 13.6 cm^2
- Height (0.001 mg/l, 1 °C, 12 days): 7.4 cm
- Number of leaf (0.001 mg/l, 1 °C, 12 days): 3
- Number of tiller (0.001 mg/l, 1 °C, 12 days): 3
- Weight of root (0.001 mg/l, 1 °C, 12 days): 3.7 g
- Area of leaf (0.001 mg/l, 2 °C, 3 days): 9.8 cm^2
- Height (0.001 mg/l, 2 °C, 3 days): 6.9 cm
- Weight of root (0.001 mg/l, 2 °C, 3 days): 2.8 g
